Measured values reported in ChEMBL document CHEMBL1130694, “Selective chemical modifications of polymyxin B” (Bioorg Med Chem Lett, 1998).
≈ marks a conversion by molar mass, not a printed value. Positions of bridges follow the written chain, without caps; N, C: chain ends. Non-standard residues stand in square brackets, D forms with d. Residues, ends and D or L forms follow the SMILES beside them. *: point of attachment. Heptanoyl(6-Me) = CC(C)CCCCC(=O)*; Dab = NCC[C@H](N)C(=O)O

Legend:
[1] = Ratio of LD50 to PD50 was evaluated.; type: ADME, organism-based; conditions: mouse, in vivo
Escherichia coli = experiment: Compound was tested for antibacterial activity against Escherichia coli organism; type: functional
Staphylococcus = experiment: Compound was tested for antibacterial activity against Staphylococcus organism; type: functional
[2] = Compound was tested for acute toxicity in mice upon intravenous administration; type: organism-based; conditions: mouse, in vivo
Mus musculus = species on record: Mus musculus; experiment: Compound was tested for protection against Pseudomonas infection in mice; type: functional; conditions: read-out: PD50
Pseudomonas = experiment: Compound was tested for antibacterial activity against Pseudomonas organism; type: functional

CC(C)CCCCC(=O)N[C@@H](CCN)C(=O)N[C@H](C(=O)N[C@@H](CCN)C(=O)N[C@H]1CCNC(=O)[C@H]([C@@H](C)O)NC(=O)[C@H](CCNC(=O)[C@@H](N)Cc2ccc(O)cc2)NC(=O)[C@H](CCN)NC(=O)[C@H](CC(C)C)NC(=O)[C@@H](Cc2ccccc2)NC(=O)[C@H](CCN)NC1=O)[C@@H](C)O showed a selectivity ratio [1] of 8.6, an MIC (Escherichia coli) of 0.175 µg/mL (≈ 0.129 µM) and an MIC (Staphylococcus) of 2.2 µg/mL (≈ 1.63 µM). The LD50 [2] was 19 mg/kg, the ED50 (Mus musculus) was 2.2 mg/kg and the MIC (Pseudomonas) was 0.073 µg/mL (≈ 0.054 µM).
With CC(C)CCCCC(=O)N[C@@H](CCN)C(=O)N[C@H](C(=O)N[C@@H](CCN)C(=O)N[C@H]1CCNC(=O)[C@H]([C@@H](C)O)NC(=O)[C@H](CCNC(=O)[C@@H](N)C[C@H](CCN)C(=O)OCc2ccccc2)NC(=O)[C@H](CCN)NC(=O)[C@H](CC(C)C)NC(=O)[C@@H](Cc2ccccc2)NC(=O)[C@H](CCN)NC1=O)[C@@H](C)O the selectivity ratio [1] was 6.5, the MIC (Escherichia coli) was 0.146 µg/mL (≈ 0.101 µM) and the MIC (Staphylococcus) was 0.445 µg/mL (≈ 0.307 µM). The LD50 [2] was 13 mg/kg, the ED50 (Mus musculus) was 2 mg/kg and the MIC (Pseudomonas) was 0.087 µg/mL (≈ 0.0599 µM).
Work on CC(C)CCCCC(=O)N[C@@H](CCN)C(=O)N[C@H](C(=O)N[C@@H](CCN)C(=O)N[C@H]1CCNC(=O)[C@H]([C@@H](C)O)NC(=O)[C@H](CCNC(=O)[C@@H](N)CCCN=C(N)N)NC(=O)[C@H](CCN)NC(=O)[C@H](CC(C)C)NC(=O)[C@@H](Cc2ccccc2)NC(=O)[C@H](CCN)NC1=O)[C@@H](C)O yielded a selectivity ratio [1] of 60, an MIC (Escherichia coli) of 0.16 µg/mL (≈ 0.119 µM) and an MIC (Staphylococcus) of 2 µg/mL (≈ 1.49 µM). The LD50 [2] was 15 mg/kg, the ED50 (Mus musculus) was 0.25 mg/kg and the MIC (Pseudomonas) was 0.03 µg/mL (≈ 0.0223 µM).
With CC(C)CCCCC(=O)N[C@@H](CCNC(=O)CN)C(=O)N[C@H](C(=O)N[C@@H](CCN)C(=O)N[C@H]1CCNC(=O)[C@H]([C@@H](C)O)NC(=O)[C@H](CCN)NC(=O)[C@H](CCN)NC(=O)[C@H](CC(C)C)NC(=O)[C@@H](Cc2ccccc2)NC(=O)[C@H](CCN)NC1=O)[C@@H](C)O [listing 1 of 2 here] the selectivity ratio [1] was 2.8 and the LD50 [2] was 20 mg/kg.
CC(C)CCCCC(=O)N[C@@H](CCNC(=O)CN)C(=O)N[C@H](C(=O)N[C@@H](CCN)C(=O)N[C@H]1CCNC(=O)[C@H]([C@@H](C)O)NC(=O)[C@H](CCN)NC(=O)[C@H](CCN)NC(=O)[C@H](CC(C)C)NC(=O)[C@@H](Cc2ccccc2)NC(=O)[C@H](CCN)NC1=O)[C@@H](C)O [listing 2 of 2 here] gave an MIC (Escherichia coli) of 0.028 µg/mL (≈ 0.0225 µM), an MIC (Staphylococcus) of 8 µg/mL (≈ 6.42 µM) and an ED50 (Mus musculus) of 7 mg/kg. It also gave an MIC (Pseudomonas) of 0.033 µg/mL (≈ 0.0265 µM).
CCCCCCC(N)C(=O)NCC[C@@H]1NC(=O)[C@H](CCN)NC(=O)[C@H](CC(C)C)NC(=O)[C@@H](Cc2ccccc2)NC(=O)[C@H](CCN)NC(=O)[C@@H](NC(=O)[C@H](CCN)NC(=O)[C@@H](NC(=O)[C@H](CCN)NC(=O)CCCCC(C)C)[C@@H](C)O)CCNC(=O)[C@H]([C@@H](C)O)NC1=O (stereo partly specified) gave a selectivity ratio [1] of 1.7, an MIC (Escherichia coli) of 0.225 µg/mL (≈ 0.169 µM) and an MIC (Staphylococcus) of 0.561 µg/mL (≈ 0.422 µM). It also gave an LD50 [2] of 12 mg/kg, an ED50 (Mus musculus) of 7 mg/kg and an MIC (Pseudomonas) of 0.051 µg/mL (≈ 0.0383 µM).
Work on CC(C)CCCCC(=O)N[C@@H](CCN)C(=O)N[C@H](C(=O)N[C@@H](CCN)C(=O)N[C@H]1CCNC(=O)[C@H]([C@@H](C)O)NC(=O)[C@H](CCN)NC(=O)[C@H](CCN)NC(=O)[C@H](CC(C)C)NC(=O)[C@@H](Cc2ccccc2)NC(=O)[C@H](CCN)NC1=O)[C@@H](C)O ({Heptanoyl(6-Me)}-[Dab]T[Dab][Dab][Dab][dF]L[Dab][Dab]T; lactam 4-C) [listing 1 of 2 here] yielded a selectivity ratio [1] of 4.5 and an LD50 [2] of 9 mg/kg.
CC(C)CCCCC(=O)N[C@@H](CCN)C(=O)N[C@H](C(=O)N[C@@H](CCN)C(=O)N[C@H]1CCNC(=O)[C@H]([C@@H](C)O)NC(=O)[C@H](CCN)NC(=O)[C@H](CCN)NC(=O)[C@H](CC(C)C)NC(=O)[C@@H](Cc2ccccc2)NC(=O)[C@H](CCN)NC1=O)[C@@H](C)O ({Heptanoyl(6-Me)}-[Dab]T[Dab][Dab][Dab][dF]L[Dab][Dab]T; lactam 4-C) [listing 2 of 2 here] showed an MIC (Escherichia coli) of 0.026 µg/mL (≈ 0.0219 µM), an MIC (Staphylococcus) of 2.8 µg/mL (≈ 2.35 µM) and an ED50 (Mus musculus) of 2 mg/kg. For the same molecule, the MIC (Pseudomonas) was 0.051 µg/mL (≈ 0.0429 µM).
